Data on seven compounds can be found in patent publication US20250179047A1, “5-[7-(3,4-DIHYDRO-1H-ISOQUINOLINE-2-CARBONYL)-1,2,3,4 TETRAHYDROISOQUINOLIN-6-YL]-1H-PYRROLE-3-CARBOXAMIDE DERIVATIVES, PHARMACEUTICAL COMPOSITIONS CONTAINING THEM AND THEIR USES AS PRO-APOPTOTIC AGENTS” (LES LABORATOIRES SERVIER, priority 2022, published 2025).

The target in assay [1] is BCL2 G101V (Homo sapiens, UniProt P10415, G101V). As to the kind of experiment: TR-FRET competitive binding assay, BCL2 G101V. Conditions: BCL2 G101V; Ki determined from IC50; read-out: TR_FRET EKI_Bcl2 G101V. The gist of the method:
(§1)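 Terbium-labelled N-terminal Halo-fusion BCL2 or BCLXL (E. coli), 0.5 nM, competed against fluorescein-labelled PUMA peptide (2 or 20 nM) for 2 h at 23° C in 50 mM Hepes pH 7.5, 150 mM NaCl, 5% DMSO. TR-FRET 520/495 nm ratio gave IC50 by four-parameter fit; Ki derived from IC50.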
In general terms: In TR-FRET formats the signal depends on donor and acceptor labels being close together.

In assay [2] the test system is BCL2 G101V. As to the kind of experiment: TR-FRET competitive binding assay, BCL2 G101V. Details: species or system human. Conditions: ratio Ki BCL2 G101V / Ki BCL2 WT. The gist of the method:
as §1

Another assay has as its system KMS-12-PE Bcl-2 WT. As to the kind of experiment: In vitro cytotoxicity CellTiter-Glo 48 h, KMS-12-PE Bcl-2 WT. Format: cell-based. Conditions: Homo sapiens, KMS-12-PE, C50 = concentration needed to reach 50% of the cellular viability. The procedure, abridged:
(§2)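 Viability measured by CellTiter-Glo luminescence after 48 h compound exposure (11-point curve, 37 °C, 5% CO2). Cells: KMS-12-PE transduced with wild-type or G101V-mutant Bcl-2, FACS-sorted for TagRFP. Reported C50 = concentration reaching 50% cellular viability.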
On the technique in general: In ATP-based viability assays light output follows the ATP content of the culture.

In the next assay the target is BCL2 WT (Homo sapiens (Human), UniProt P10415). As to the kind of experiment: TR-FRET competitive binding assay, BCL2 WT. Conditions: Ki determined from IC50, read-out: TR_FRET EKI_Bcl2 WT. The gist of the method:
as §1

For another assay, the target named is BCL2 D111A (Homo sapiens, UniProt P10415, D111A). As to the kind of experiment: TR-FRET competitive binding assay, BCL2 D111A. Conditions: Ki determined from IC50, read-out: TR_FRET EKI_Bcl2 D111A. The gist of the method: as §1
Another assay has as its system KMS-12-PE Bcl-2 G101V. As to the kind of experiment: In vitro cytotoxicity CellTiter-Glo 48 h, KMS-12-PE Bcl-2 G101V. The conditions noted are these: for Ratio (G101V/WT): C50 KMS-12-PE Bcl-2 G101V over C50 KMS-12-PE Bcl-2 WT; for IC50: Homo sapiens, KMS-12-PE, 48 h, CellTiter-Glo, C50 = concentration needed to reach 50% of the cellular viability. Format: cell-based. The gist of the method:
as §2

The target of a further assay is BCLXL WT (Homo sapiens (Human), UniProt Q07817). As to the kind of experiment: TR-FRET competitive binding assay, BCLXL WT. The conditions noted are these: for Ki: BCLXL WT, Ki determined from IC50, read-out: TR_FRET EKI BclxL; for TR_FRET EKI BCLxL/WT selectivty ratio: ratio Ki BCLxL / Ki BCL2 WT. The procedure, abridged: as §1
For a further assay, the target named is BCL2 D103Y (Homo sapiens, UniProt P10415, D103Y). As to the kind of experiment: TR-FRET competitive binding assay, BCL2 D103Y. The conditions noted are these: Ki determined from IC50, read-out: TR_FRET EKI_Bcl2 D103Y. The procedure, abridged: as §1
The next assay concerns the target BCL2 F104I (Homo sapiens, UniProt P10415, F104I). As to the kind of experiment: TR-FRET competitive binding assay, BCL2 F104I. Conditions: Ki determined from IC50, read-out: TR_FRET EKI_Bcl2 F104I. The procedure, abridged:
as §1

Structures are written as SMILES.

BCLXL WT, sequence (Q07817 other isoform, or with tags, fused parts or gaps): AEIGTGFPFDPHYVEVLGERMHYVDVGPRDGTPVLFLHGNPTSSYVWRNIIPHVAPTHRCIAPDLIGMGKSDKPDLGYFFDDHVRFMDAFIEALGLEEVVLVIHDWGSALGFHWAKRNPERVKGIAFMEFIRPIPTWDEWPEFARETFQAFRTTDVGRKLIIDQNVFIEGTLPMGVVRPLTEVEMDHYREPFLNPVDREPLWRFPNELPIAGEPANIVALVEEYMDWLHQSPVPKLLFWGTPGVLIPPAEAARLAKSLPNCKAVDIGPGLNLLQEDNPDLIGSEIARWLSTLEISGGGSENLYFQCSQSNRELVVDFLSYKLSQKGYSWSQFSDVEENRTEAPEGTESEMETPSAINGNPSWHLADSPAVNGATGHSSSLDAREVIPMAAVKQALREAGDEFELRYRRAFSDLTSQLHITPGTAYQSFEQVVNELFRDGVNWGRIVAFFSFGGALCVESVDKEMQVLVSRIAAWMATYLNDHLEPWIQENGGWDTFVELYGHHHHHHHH

Take `Cc1cc(OCCN2CCOCC2)ccc1CC(=O)N1CCc2cc(-c3cc(C(=O)N(c4ccc(O)cc4)c4cc(C#N)n(C)c4C)c(C)n3C)c(C(=O)N3Cc4ccccc4C[C@H]3CN3CCCCC3)cc2C1` [Example 113, N-(5-cyano-1,2-dimethyl-1H-pyrrol-3-yl)-N-(4-hydroxyphenyl)-1,2-dimethyl-5-[2-(2-{2-methyl-4-[2-(morpholin-4-yl)ethoxy]phenyl}acetyl)-7-[(3S)-3-[(piperidin-1-yl)methyl]-1,2,3,4-tetrahydroisoquinoline-2-carbonyl]-1,2,3,4-tetrahydroisoquinolin-6-yl]-1H-pyrrole-3-carboxamide]: the Ki is 0.3 nM on BCL2 G101V [1]; 0.05 nM at BCL2 WT; 0.13 nM on BCL2 D111A; 3.6 nM on BCLXL WT; 0.15 nM on BCL2 D103Y; 0.27 nM on BCL2 F104I. Further, in the assay on BCL2 G101V [2], the “TR_FRET EKI G101V/WT selectivty ratio” value is given as 5.2. The half-maximal inhibitory concentration (IC50) with KMS-12-PE Bcl-2 WT was 0.0063 µM; in the assay on KMS-12-PE Bcl-2 G101V, 0.0278 µM. Further, in the assay on KMS-12-PE Bcl-2 G101V, the “Ratio (G101V/WT)” value is recorded as 4.38. In addition, the “TR_FRET EKI BCLxL/WT selectivty ratio” value at BCLXL WT worked out at 69.2.

Take `Cc1c(N(C(=O)c2cc(-c3cc4c(cc3C(=O)N3Cc5ccccc5C[C@H]3CN3CCCCC3)CN(C(=O)Cc3ccc(OCCN5CCC(F)CC5)cc3F)CC4)n(C)c2C)c2ccc(O)cc2)cc(C#N)n1C` [Example 115, N-(5-cyano-1,2-dimethyl-1H-pyrrol-3-yl)-5-[2-(2-{2-fluoro-4-[2-(4-fluoropiperidin-1-yl)ethoxy]phenyl}acetyl)-7-[(3S)-3-[(piperidin-1-yl)methyl]-1,2,3,4-tetrahydroisoquinoline-2-carbonyl]-1,2,3,4-tetrahydroisoquinolin-6-yl]-N-(4-hydroxyphenyl)-1,2-dimethyl-1H-pyrrole-3-carboxamide]: the Ki stood at 0.2 nM at BCL2 G101V [1]; 0.03 nM on BCL2 WT; 0.17 nM at BCL2 D111A; 2.8 nM at BCLXL WT; 0.08 nM on BCL2 D103Y; 0.3 nM on BCL2 F104I. In the assay on BCL2 G101V [2], the “TR_FRET EKI G101V/WT selectivty ratio” value is reported as 5.6. The values for the IC50 with KMS-12-PE Bcl-2 WT and in the assay with KMS-12-PE Bcl-2 G101V were 0.0072 µM and 0.0458 µM, respectively. In addition, the “Ratio (G101V/WT)” value with KMS-12-PE Bcl-2 G101V is 6.05. Besides, on BCLXL WT, the “TR_FRET EKI BCLxL/WT selectivty ratio” value was 100.0.

In the case of `Cc1c(N(C(=O)c2cc(-c3cc4c(cc3C(=O)N3Cc5ccccc5C[C@H]3CN3CCCCC3)CN(C(=O)Cc3ccc(OCCN5CCN(CCF)CC5)cc3F)CC4)n(C)c2C)c2ccc(O)cc2)cc(C#N)n1C` [Example 117, N-(5-cyano-1,2-dimethyl-1H-pyrrol-3-yl)-5-{2-[2-(2-fluoro-4-{2-[4-(2-fluoroethyl)piperazin-1-yl]ethoxy}phenyl)acetyl]-7-[(3S)-3-[(piperidin-1-yl)methyl]-1,2,3,4-tetrahydroisoquinoline-2-carbonyl]-1,2,3,4-tetrahydroisoquinolin-6-yl}-N-(4-hydroxyphenyl)-1,2-dimethyl-1H-pyrrole-3-carboxamide], the Ki on BCL2 G101V [1] came out at 0.3 nM; at BCL2 WT, 0.05 nM; at BCL2 D111A, 0.11 nM; at BCLXL WT, 1.7 nM; on BCL2 D103Y, 0.11 nM; at BCL2 F104I it was 0.18 nM. The “TR_FRET EKI G101V/WT selectivty ratio” value in the assay on BCL2 G101V [2] came out at 5.3. Moreover, the values for the IC50 with KMS-12-PE Bcl-2 WT and in the assay with KMS-12-PE Bcl-2 G101V were 0.0081 µM and 0.033 µM, respectively. In addition, the “Ratio (G101V/WT)” value in the assay on KMS-12-PE Bcl-2 G101V is on record as 4.09. Also, on BCLXL WT, the “TR_FRET EKI BCLxL/WT selectivty ratio” value is given as 36.2.

With `Cc1c(N(C(=O)c2cc(-c3cc4c(cc3C(=O)N3Cc5ccccc5C[C@H]3CN3C[C@H]5C[C@H]5C3)CN(C(=O)Cc3ccc(OCCN5CCOCC5)cc3F)CC4)n(C)c2C)c2ccc(O)cc2)cc(C#N)n1C` [Example 120, 5-{7-[(3S)-3-{[cis-3-azabicyclo[3.1.0]hexan-3-yl]methyl}-1,2,3,4-tetrahydroisoquinoline-2-carbonyl]-2-(2-{2-fluoro-4-[2-(morpholin-4-yl)ethoxy]phenyl}acetyl)-1,2,3,4-tetrahydroisoquinolin-6-yl}-N-(5-cyano-1,2-dimethyl-1H-pyrrol-3-yl)-N-(4-hydroxyphenyl)-1,2-dimethyl-1H-pyrrole-3-carboxamide], the Ki was determined as 0.5 nM at BCL2 G101V [1]; 0.1 nM at BCL2 WT; 0.3 nM at BCL2 D111A; 5.3 nM on BCLXL WT; 0.21 nM at BCL2 D103Y; 0.37 nM at BCL2 F104I. The “TR_FRET EKI G101V/WT selectivty ratio” value in the assay with BCL2 G101V [2] was 5.2. Besides, the IC50 with KMS-12-PE Bcl-2 WT came to 0.0032 µM; in the assay on KMS-12-PE Bcl-2 G101V, 0.0186 µM. In addition, the “Ratio (G101V/WT)” value with KMS-12-PE Bcl-2 G101V is 5.83. Also, the “TR_FRET EKI BCLxL/WT selectivty ratio” value on BCLXL WT amounted to 53.0.

Turning to `Cc1c(N(C(=O)c2cc(-c3cc4c(cc3C(=O)N3Cc5ccccc5C[C@H]3CN3CCCCC3)CN(C(=O)Cc3ccc(OCCN5CCOC(C)(C)C5)cc3)CC4)n(C)c2C)c2ccc(O)cc2)cc(C#N)n1C` [Example 121, N-(5-cyano-1,2-dimethyl-1H-pyrrol-3-yl)-5-[2-(2-{4-[2-(2,2-dimethylmorpholin-4-yl)ethoxy]phenyl}acetyl)-7-[(3S)-3-[(piperidin-1-yl)methyl]-1,2,3,4-tetrahydroisoquinoline-2-carbonyl]-1,2,3,4-tetrahydroisoquinolin-6-yl]-N-(4-hydroxyphenyl)-1,2-dimethyl-1H-pyrrole-3-carboxamide], the Ki at BCL2 G101V [1] amounted to 0.5 nM; on BCL2 WT, 0.16 nM; on BCL2 D111A, 0.23 nM; at BCLXL WT, 6 nM; on BCL2 D103Y, 0.34 nM; on BCL2 F104I, 0.56 nM. In addition, the “TR_FRET EKI G101V/WT selectivty ratio” value with BCL2 G101V [2] is 3.2. Further, the IC50 in the assay on KMS-12-PE Bcl-2 WT stood at 0.0076 µM; with KMS-12-PE Bcl-2 G101V it was 0.0397 µM. Also, the “Ratio (G101V/WT)” value in the assay with KMS-12-PE Bcl-2 G101V is 5.25. The “TR_FRET EKI BCLxL/WT selectivty ratio” value at BCLXL WT amounted to 38.5.

Turning to `Cc1c(N(C(=O)c2cc(-c3cc4c(cc3C(=O)N3Cc5ccccc5C[C@H]3CN3CCCC[C@H]3C)CN(C(=O)Cc3ccc(OCCN5CCOCC5)cc3F)CC4)n(C)c2C)c2ccc(O)cc2)cc(C#N)n1C` [Example 123, N-(5-cyano-1,2-dimethyl-1H-pyrrol-3-yl)-5-[2-(2-{2-fluoro-4-[2-(morpholin-4-yl)ethoxy]phenyl}acetyl)-7-[(3S)-3-{[(2R)-2-methylpiperidin-1-yl]methyl}-1,2,3,4-tetrahydroisoquinoline-2-carbonyl]-1,2,3,4-tetrahydroisoquinolin-6-yl]-N-(4-hydroxyphenyl)-1,2-dimethyl-1H-pyrrole-3-carboxamide], the Ki on BCL2 G101V [1] amounted to 0.3 nM; on BCL2 WT, 0.07 nM; at BCL2 D111A, 0.13 nM; at BCLXL WT it was 2.6 nM; on BCL2 D103Y, 0.28 nM; on BCL2 F104I, 0.18 nM. In addition, the “TR_FRET EKI G101V/WT selectivty ratio” value with BCL2 G101V [2] stood at 4.2. In addition, the IC50 in the assay with KMS-12-PE Bcl-2 WT was determined as 0.0038 µM; in the assay with KMS-12-PE Bcl-2 G101V it was 0.0185 µM. Besides, the “Ratio (G101V/WT)” value in the assay with KMS-12-PE Bcl-2 G101V was 4.82. For the same compound, the “TR_FRET EKI BCLxL/WT selectivty ratio” value on BCLXL WT is 35.1.

`Cc1c(N(C(=O)c2cc(-c3cc4c(cc3C(=O)N3Cc5ccccc5C[C@H]3CN3CCC[C@@H](C)C3)CN(C(=O)Cc3ccc(OCCN5CCOCC5)cc3F)CC4)n(C)c2C)c2ccc(O)cc2)cc(C#N)n1C` [Example 124, N-(5-cyano-1,2-dimethyl-1H-pyrrol-3-yl)-5-[2-(2-{2-fluoro-4-[2-(morpholin-4-yl)ethoxy]phenyl}acetyl)-7-[(3S)-3-{[(3R)-3-methylpiperidin-1-yl]methyl}-1,2,3,4-tetrahydroisoquinoline-2-carbonyl]-1,2,3,4-tetrahydroisoquinolin-6-yl]-N-(4-hydroxyphenyl)-1,2-dimethyl-1H-pyrrole-3-carboxamide]: the Ki was determined as 0.7 nM at BCL2 G101V [1]; 0.12 nM on BCL2 WT; 0.28 nM at BCL2 D111A; 5.8 nM on BCLXL WT; 0.58 nM on BCL2 D103Y; 0.34 nM at BCL2 F104I. Further, in the assay with BCL2 G101V [2], the “TR_FRET EKI G101V/WT selectivty ratio” value turned out to be 5.8. In addition, the figures for the IC50 in the assay with KMS-12-PE Bcl-2 WT and with KMS-12-PE Bcl-2 G101V were 0.0041 µM and 0.0231 µM, respectively. Besides, the “Ratio (G101V/WT)” value in the assay on KMS-12-PE Bcl-2 G101V is on record as 5.62. Moreover, on BCLXL WT, the “TR_FRET EKI BCLxL/WT selectivty ratio” value was 48.3.

The term IC50 denotes the concentration that gives 50% inhibition. Higher therefore signals weaker potency.
